These results are taken from patent US10357491B2, “Method of treating a brain tumor” (BeyondSpring Pharmaceuticals, Inc., priority 2015, dated 2019).

The subject of assay [1] is PDGF-induced gliomas that expressed G12D mutant KRAS. As to the kind of experiment: Survival of mice with PDGF-induced gliomas expressing G12D mutant KRAS treated with Plinabulin. In kind it is in vivo. The note with it: Plinabulin 7.5 mg/kg i.p. twice per week for 10 weeks; control: Plinabulin diluent only; p=0.001. An excerpt: Mice with PDGF-induced gliomas using RCAS/tv-a were generated. The mice were transgenic for expression of the RCAS receptor (tv-a) from the nestin promoter and having a background of ink4a/arf−/− and lox-stop-lox luciferase, were infected with RCAS-PDGF, or the combination of RCAS-PDGF and RCAS-KRAS that expressed G12D mutant KRAS. The resultant tumors occurred within the first 4-5 weeks in this background for PDGF alone, and about a week shorter for the tumors arising from the combination of PDGF and RCAS. The tumors had the histological characteristics of GBM and were identified by symptoms of lethargy and poor grooming, MRI scans using a T2 weighted sequence, or bioluminescence imaging with an IVIS system. For radiation therapy, mice were treated with 10Gy per day cranially for a single dose.
Plinabulin was tested on mice with PDGF-induced gliomas that expressed G12D mutant KRAS. 4-6 week old nestin-tv-a/ink4a-arf−/− mice were anesthetized with Isoflurane and injected with Df-1 cells transfected RCAS-PDGF-B-HA, RCAS-KRAS. Mice were injected with one microliter of a 1:1 mixture of 2×10^5 RCAS-PDGF-B-HA/RCAS-KRAS using a stereotactic frame via a 26-gauge needle attached to a Hamilton syringe. […] The mice were monitored for lethargy, hunched posture, appetite loss, outward signs of tumor growth, agitation, weight-loss and overall failure to thrive. […]

Assay [2] has the same test system. Briefly: Survival of mice with PDGF-induced gliomas expressing G12D mutant KRAS treated with Plinabulin plus TMZ plus radiation. It counts as in vivo. Particulars: Plinabulin 7.5 mg/kg i.p. twice a week for 10 weeks plus TMZ plus radiation 10gy x1; p=0.0149. On the procedure: Mice with PDGF-induced gliomas that expressed G12D mutant KRAS were prepared using the procedures according to Example 1 and used in this experiment. 4-6 week old nestin-tv-a/ink4a-arf−/− mice were anesthetized with Isoflurane and injected with Df-1 cells transfected RCAS-PDGF-B-HA, RCAS-KRAS. Mice were injected with one microliter of a 1:1 mixture of 2×10^5 RCAS-PDGF-B-HA/RCAS-KRAS using a stereotactic frame via a 26-gauge needle attached to a Hamilton syringe. Cells were injected into the right frontal cortex, coordinates bregma 1.75 mm, Lat −0.5 mm, and a depth of 2 mm.
The mice were entered into two study groups. One group was treated with the combination of temozolomide (TMZ), Radiation and Plinabulin: radiation was given at 10gy×1, TMZ and Plinabulin 7.5 mg/kg in Plinabulin diluent was administered intraperitoneally twice a week on Monday and Thursday for 10 weeks. The other group, the control group, was treated with the combination of TMZ and radiation: radiation was given at 10gy×1, TMZ was administered intraperitoneally twice a week on Monday and Thursday for 10 weeks. the mice were monitored for lethargy, hunched posture, appetite loss, outward signs of tumor growth, agitation, weight-loss and overall failure to thrive. […]

On to `CC(C)(C)c1[nH]cnc1/C=c1\[nH]c(=O)/c(=C/c2ccccc2)[nH]c1=O` [Plinabulin, (3Z,6Z)-3-Benzylidene-6-{[5-(2-methyl-2-propanyl)-1H-imidazol-4-yl]methylene}-2,5-piperazinedione], for which the “survival rate vs control group (FIG. 3)” value in assay [1] is listed as “significantly better survival rate”. Further, in assay [2], the “survival rate vs control group that received TMZ plus radiation (FIG. 4)” value was “significantly better survival rate”.
